“And” between values parts separate entries of the source, which are not always exact repeats. Equal values may be shown once. Inconclusive results and toxic doses are left out. How the source made its calls: active means survival T/C of 150% or more; inactive means T/C below 125% in these data.
Test system: CD2F1 mice, L1210 leukemia ip, survival T/C
Test: NCI In Vivo Anticancer Drug Screen. Data for tumor model L1210 Leukemia (intraperitoneal) in CD2F1 (CDF1) mice
Conditions: higher = longer survival
How it was run: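 Read-out first: treated-group measurement over vehicle-control measurement, expressed as a ratio. Animals bore a transplanted tumor line and were dosed with compound or vehicle.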

[1] = endpoint: mean survival time, dose: 100.0 mg/kg/injection, schedule: Q01DX001 (ip), vehicle: saline with Tween-80
[2] = endpoint: mean survival time, dose: 200.0 mg/kg/injection, schedule: Q01DX001 (ip), vehicle: saline with Tween-80
[3] = endpoint: mean survival time, dose: 400.0 mg/kg/injection, schedule: Q01DX001 (ip), vehicle: saline with Tween-80
[4] = endpoint: mean survival time, dose: 100.0 mg/kg/injection, schedule: Q04DX003 (ip), vehicle: saline with Tween-80
[5] = endpoint: mean survival time, dose: 200.0 mg/kg/injection, schedule: Q04DX003 (ip), vehicle: saline with Tween-80
[6] = endpoint: mean survival time, dose: 400.0 mg/kg/injection, schedule: Q04DX003 (ip), vehicle: saline with Tween-80
[7] = endpoint: mean survival time, dose: 100.0 mg/kg/injection, schedule: Q01DX009 (ip), vehicle: saline with Tween-80
[8] = endpoint: mean survival time, dose: 200.0 mg/kg/injection, schedule: Q01DX009 (ip), vehicle: saline with Tween-80
[9] = endpoint: mean survival time, dose: 400.0 mg/kg/injection, schedule: Q01DX009 (ip), vehicle: saline with Tween-80
[10] = endpoint: mean survival time, dose: 100.0 mg/kg/injection, schedule: Q04DX002 (ip), vehicle: saline with Tween-80
[11] = endpoint: mean survival time, dose: 200.0 mg/kg/injection, schedule: Q04DX002 (ip), vehicle: saline with Tween-80
[12] = endpoint: mean survival time, dose: 50.0 mg/kg/injection, schedule: Q01DX009 (ip), vehicle: saline with Tween-80
[13] = endpoint: mean survival time, dose: 75.0 mg/kg/injection, schedule: Q01DX001 (ip), vehicle: other
[14] = endpoint: mean survival time, dose: 150.0 mg/kg/injection, schedule: Q01DX001 (ip), vehicle: other
[15] = endpoint: mean survival time, dose: 300.0 mg/kg/injection, schedule: Q01DX001 (ip), vehicle: other

Measured: T/C

O=C(O)c1c[nH]c2ccc([N+](=O)[O-])cc2c1=O
inactive: endpoint: mean survival time, dose: 50.0 mg/kg/injection, schedule: Q01DX001 (ip), vehicle: Klucel (hydroxypropylcellulose) (HPC) 104 % of control | endpoint: mean survival time, dose: 100.0 mg/kg/injection, schedule: Q01DX001 (ip), vehicle: Klucel (hydroxypropylcellulose) (HPC) 120 % of control | [1] 93 % of control | [2] 89 % of control | [3] 86 % of control

Cc1ccccc1C1(c2ccccc2C)OC(=O)c2ccccc21
inactive: endpoint: mean survival time, dose: 100.0 mg/kg/injection, schedule: Q04DX003 (ip), vehicle: acetone 104 % of control | endpoint: mean survival time, dose: 200.0 mg/kg/injection, schedule: Q04DX003 (ip), vehicle: acetone 88 % of control | endpoint: mean survival time, dose: 400.0 mg/kg/injection, schedule: Q04DX003 (ip), vehicle: acetone 96 % of control

CCCC(C#N)(CCCl)c1ccccc1 (stereo unspecified)
inactive: [4] 101 % of control | [5] 101 % of control | [6] 96 % of control

Nc1nc(N)c(-c2ccc(Cl)cc2)c(COc2ccc(CCC3(CCl)OCCO3)cc2)n1
inactive: endpoint: mean survival time, dose: 25.0 mg/kg/injection, schedule: Q01DX001 (ip), vehicle: saline with Tween-80 101 % of control | endpoint: mean survival time, dose: 50.0 mg/kg/injection, schedule: Q01DX001 (ip), vehicle: saline with Tween-80 101 % of control | [1] 108 % of control

CC1=C(CNc2ncnc3nc[nH]c23)CC=CC1
inactive: [7] 88 % of control | [4] 95 % of control | [8] 92 % of control | [9] 88 % of control | [6] 98 % of control

CC(C)C1CCC(C)C(C(CC(=O)c2ccccc2)c2ccccc2)C1=O (stereo unspecified)
inactive: [10] 97 % of control | [11] 90 % of control | endpoint: mean survival time, dose: 400.0 mg/kg/injection, schedule: Q04DX002 (ip), vehicle: saline with Tween-80 101 % of control

CC(=O)NC(CSCc1c2ccccc2c(C)c2c1ccc1ccccc12)C(=O)O (stereo unspecified)
inactive: [12] 103 % of control | [7] 95 % of control | [4] 93 % of control | [8] 103 % of control | [5] 90 % of control

CC1=C(N2CC2C)C(=O)c2c(COC(N)=O)c3n(c2C1=O)CC1NC31 (stereo unspecified)
inactive: endpoint: mean survival time, dose: 2.5 mg/kg/injection, schedule: Q01DX001 (ip), vehicle: distilled water + Tween-80 111 % of control | endpoint: mean survival time, dose: 5.0 mg/kg/injection, schedule: Q01DX001 (ip), vehicle: distilled water + Tween-80 101 % of control | endpoint: mean survival time, dose: 10.0 mg/kg/injection, schedule: Q01DX001 (ip), vehicle: distilled water + Tween-80 111 % of control | endpoint: mean survival time, dose: 20.0 mg/kg/injection, schedule: Q01DX001 (ip), vehicle: distilled water + Tween-80 122 % of control

O=P([O-])([O-])O.O=P([O-])([O-])O.O=P([O-])([O-])O.O=P([O-])([O-])O.[Na+].[OH3+].[OH3+].[Pt+2].[Pt+2]
inactive: endpoint: median survival time, dose: 10.0 mg/kg/injection, schedule: Q04DX003 (ip), vehicle: water 102 % of control | endpoint: median survival time, dose: 20.0 mg/kg/injection, schedule: Q04DX003 (ip), vehicle: water 91 % of control | endpoint: median survival time, dose: 30.75 mg/kg/injection, schedule: Q04DX003 (ip), vehicle: water 103 % of control | endpoint: median survival time, dose: 40.0 mg/kg/injection, schedule: Q04DX003 (ip), vehicle: water 98 % of control | endpoint: median survival time, dose: 61.5 mg/kg/injection, schedule: Q04DX003 (ip), vehicle: water 102 % of control | endpoint: median survival time, dose: 80.0 mg/kg/injection, schedule: Q04DX003 (ip), vehicle: water 94 % of control | endpoint: median survival time, dose: 123.0 mg/kg/injection, schedule: Q04DX003 (ip), vehicle: water 104 % of control | endpoint: median survival time, dose: 246.0 mg/kg/injection, schedule: Q04DX003 (ip), vehicle: water 110 % of control

Cc1ccc(NC(=S)NCCO)cc1C
inactive: [7] 114 % of control

CC12CCCCC1SC(F)(F)C2(F)F (stereo unspecified)
inactive: endpoint: mean survival time, dose: 12.5 mg/kg/injection, schedule: Q04DX003 (ip), vehicle: saline with Tween-80 111 % of control | endpoint: mean survival time, dose: 25.0 mg/kg/injection, schedule: Q04DX003 (ip), vehicle: saline with Tween-80 88 % of control | endpoint: mean survival time, dose: 50.0 mg/kg/injection, schedule: Q04DX003 (ip), vehicle: saline with Tween-80 103 % of control

O=C(O)c1c(F)cccc1F
inactive: [13] 103 % of control | [14] 100 % of control | [15] 100 % of control

C[CH2][Sn]1([CH2]C)[O]C2C(CO)OC(n3ccc4c(N)ncnc43)C2[O]1 (stereo unspecified)
inactive: endpoint: mean survival time, dose: 0.78 mg/kg/injection, schedule: Q01DX005 (ip), vehicle: other 110 % of control | endpoint: mean survival time, dose: 1.56 mg/kg/injection, schedule: Q01DX005 (ip), vehicle: other 104 % of control | endpoint: mean survival time, dose: 3.13 mg/kg/injection, schedule: Q01DX005 (ip), vehicle: other 117 % of control

OCC12COCN1COC2
inactive: endpoint: mean survival time, dose: 12.5 mg/kg/injection, schedule: Q01DX009 (ip), vehicle: saline 98 % of control and 104 % of control | endpoint: mean survival time, dose: 25.0 mg/kg/injection, schedule: Q01DX009 (ip), vehicle: saline 94 % of control and 96 % of control | endpoint: mean survival time, dose: 50.0 mg/kg/injection, schedule: Q01DX009 (ip), vehicle: saline 101 % of control and 104 % of control | endpoint: mean survival time, dose: 100.0 mg/kg/injection, schedule: Q01DX009 (ip), vehicle: saline 98 % of control and 101 % of control | endpoint: mean survival time, dose: 200.0 mg/kg/injection, schedule: Q01DX009 (ip), vehicle: saline 96 % of control and 106 % of control | endpoint: mean survival time, dose: 400.0 mg/kg/injection, schedule: Q01DX009 (ip), vehicle: saline 109 % of control and 112 % of control

COc1cccc2c1C(=O)c1c(OC)c(CBr)cc(OC)c1C2=O
inactive: endpoint: mean survival time, dose: 12.5 mg/kg/injection, schedule: Q01DX005 (ip), vehicle: other 96 % of control | endpoint: mean survival time, dose: 25.0 mg/kg/injection, schedule: Q01DX005 (ip), vehicle: other 101 % of control | endpoint: mean survival time, dose: 50.0 mg/kg/injection, schedule: Q01DX005 (ip), vehicle: other 96 % of control | endpoint: mean survival time, dose: 100.0 mg/kg/injection, schedule: Q01DX005 (ip), vehicle: other 86 % of control

CCCC(=O)Nc1ccn(C2OC(CO)C(O)C2O)c(=O)n1 (stereo unspecified)
inactive: [12] 98 % of control | endpoint: mean survival time, dose: 50.0 mg/kg/injection, schedule: Q04DX002 (ip), vehicle: saline 100 % of control | [7] 102 % of control | endpoint: mean survival time, dose: 100.0 mg/kg/injection, schedule: Q04DX002 (ip), vehicle: saline 97 % of control | [8] 102 % of control | endpoint: mean survival time, dose: 200.0 mg/kg/injection, schedule: Q04DX002 (ip), vehicle: saline 97 % of control | [9] 104 % of control | endpoint: mean survival time, dose: 400.0 mg/kg/injection, schedule: Q04DX002 (ip), vehicle: saline 97 % of control | endpoint: mean survival time, dose: 600.0 mg/kg/injection, schedule: Q04DX002 (ip), vehicle: saline 97 % of control

O=c1c2cccc3cccc(c32)c2cc(-c3ccccc3)nn12
inactive: endpoint: mean survival time, dose: 25.0 mg/kg/injection, schedule: Q04DX002 (ip), vehicle: saline with Tween-80 100 % of control | endpoint: mean survival time, dose: 50.0 mg/kg/injection, schedule: Q04DX002 (ip), vehicle: saline with Tween-80 92 % of control | [10] 96 % of control | [11] 103 % of control

O=C(O)/C=N/NS(=O)(=O)c1ccccc1
inactive: endpoint: mean survival time, dose: 12.5 mg/kg/injection, schedule: Q01DX009 (ip), vehicle: water 99 % of control | endpoint: mean survival time, dose: 25.0 mg/kg/injection, schedule: Q01DX009 (ip), vehicle: water 103 % of control | endpoint: mean survival time, dose: 50.0 mg/kg/injection, schedule: Q01DX009 (ip), vehicle: water 113 % of control | endpoint: mean survival time, dose: 100.0 mg/kg/injection, schedule: Q01DX009 (ip), vehicle: water 114 % of control

CC(=O)Oc1cc2c3c(c1)CCCN3CCC2
inactive: endpoint: mean survival time, dose: 5.0 mg/kg/injection, schedule: Q04DX003 (ip), vehicle: saline 102 % of control | endpoint: mean survival time, dose: 6.25 mg/kg/injection, schedule: Q01DX009 (ip), vehicle: saline with Tween-80 101 % of control | endpoint: mean survival time, dose: 12.5 mg/kg/injection, schedule: Q01DX009 (ip), vehicle: saline with Tween-80 96 % of control

CC(CN(C)C)c1ccccn1 (stereo unspecified)
inactive: [13] 106 % of control | [14] 106 % of control | [15] 106 % of control

O=C1C2C=CC=CC1C1C=CC=CC21 (stereo unspecified)
inactive: endpoint: median survival time, dose: 50.0 mg/kg/injection, schedule: Q04DX002 (ip), vehicle: saline with Tween-80 112 % of control | endpoint: median survival time, dose: 100.0 mg/kg/injection, schedule: Q04DX002 (ip), vehicle: saline with Tween-80 100 % of control | endpoint: median survival time, dose: 200.0 mg/kg/injection, schedule: Q04DX002 (ip), vehicle: saline with Tween-80 100 % of control | endpoint: median survival time, dose: 400.0 mg/kg/injection, schedule: Q04DX002 (ip), vehicle: saline with Tween-80 100 % of control

Cc1cc(Br)c[nH]c1=O
inactive: [1] 104 % of control | [7] 94 % of control | [2] 108 % of control | [8] 100 % of control | [3] 104 % of control
